Where a name gives a salt, the structure may show the parent alone.
What was measured:
Conditions in all cases: Table 1
[1] = target: PKC-α (Homo sapiens, UniProt P17252); assay: PKC Enzyme Assay, alpha isozyme; assay type: biochemical
Protocol: (§1) PKC enzymes=alpha, beta I, beta II, gamma, delta, epsilon, eta and zeta.
(§2) Assay components in a total volume of 250 μL are as follows:
(§3) For all the enzymes either histone type HL (Worthington) or myelin basic protein is used as substrate. The assay is started by addition of protein kinase C enzyme incubated at 30° C. for 10 minutes and stopped by adding 0.5 mL of cold trichloroacetic acid (Amresco) followed by 100 μL of 1 mg/mL bovine serum albumin (Sigma, St. Louis, Mo.). The precipitate is collected by vacuum filtration on glass fiber filters employing a TOMTEC™ filtration system and quantified by counting in a beta scintillation counter.

[2] = target: T1, casein protein kinase II (Rattus norvegicus, UniProt P19139); assay: Casein Protein Kinase II Assay (CK-II); assay type: biochemical
T1 construct: isolated from rat brain homogenate; from tissue; host or cells: rat brain homogenate
T1 sequence (P19139 whole entry): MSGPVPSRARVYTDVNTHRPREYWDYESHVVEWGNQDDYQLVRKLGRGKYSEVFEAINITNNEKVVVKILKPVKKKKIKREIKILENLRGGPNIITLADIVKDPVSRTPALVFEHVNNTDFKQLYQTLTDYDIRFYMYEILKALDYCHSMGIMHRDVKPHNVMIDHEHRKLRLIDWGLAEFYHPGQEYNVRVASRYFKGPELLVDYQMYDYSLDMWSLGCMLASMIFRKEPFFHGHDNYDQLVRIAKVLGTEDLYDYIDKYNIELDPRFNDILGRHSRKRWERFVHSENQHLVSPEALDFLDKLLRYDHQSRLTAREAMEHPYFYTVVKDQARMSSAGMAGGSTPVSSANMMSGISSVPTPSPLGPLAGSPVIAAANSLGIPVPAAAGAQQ
T1 sequence (P67874 2-215 partner limits assumed): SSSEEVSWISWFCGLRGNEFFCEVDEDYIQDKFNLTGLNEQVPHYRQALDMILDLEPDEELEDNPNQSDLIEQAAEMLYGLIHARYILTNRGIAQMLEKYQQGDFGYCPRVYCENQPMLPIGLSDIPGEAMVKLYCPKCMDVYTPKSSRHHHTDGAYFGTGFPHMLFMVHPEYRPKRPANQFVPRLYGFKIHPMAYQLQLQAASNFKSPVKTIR
Protocol: Casein Protein Kinase II Assay (CK-II)
The Casein Protein Kinase II Assay is described in Neurochem. […] The assay components are in a total volume of 250 μL: 20 mM Tris-HCl, pH 7.5, 5 mM sodium fluoride, 50 mg/mL Casein (Sigma, St. Louis, Mo.), 10 mM magnesium chloride (Sigma, St. Louis, Mo.), 10 μL DMSO or DMSO/inhibitor and 30 μm (gamma-32P) ATP (DuPont). Initiation of the reaction is performed by addition of casein protein kinase II (isolated from rat brain homogenate), incubated at room temperature for 10 minutes and stopped by the addition of 0.5 mL ice cold Trichloroacetic acid (Amresco) followed by 100 μL of 1 mg/mL bovine serum albumin (Sigma, St. Louis, Mo.). The precipitate is collected by vacuum filtration on glass fiber filters and quantified by counting in a beta scintillation counter.
Assay components in order of addition
10 μL or DMSO or DMSO/inhibitor
25 μL of AT32P in 300 μM magnesium chloride
40 μL of enzyme (undiluted)
Buffer prepared as follows:
(Final volume=3.5 mL: amount of 20 assays)

[3] = target: PKC-β1 (Homo sapiens, UniProt P05771); assay: PKC Enzyme Assay, beta-1 isozyme; assay type: biochemical
Chain of PKC-β1 (P05771 whole entry): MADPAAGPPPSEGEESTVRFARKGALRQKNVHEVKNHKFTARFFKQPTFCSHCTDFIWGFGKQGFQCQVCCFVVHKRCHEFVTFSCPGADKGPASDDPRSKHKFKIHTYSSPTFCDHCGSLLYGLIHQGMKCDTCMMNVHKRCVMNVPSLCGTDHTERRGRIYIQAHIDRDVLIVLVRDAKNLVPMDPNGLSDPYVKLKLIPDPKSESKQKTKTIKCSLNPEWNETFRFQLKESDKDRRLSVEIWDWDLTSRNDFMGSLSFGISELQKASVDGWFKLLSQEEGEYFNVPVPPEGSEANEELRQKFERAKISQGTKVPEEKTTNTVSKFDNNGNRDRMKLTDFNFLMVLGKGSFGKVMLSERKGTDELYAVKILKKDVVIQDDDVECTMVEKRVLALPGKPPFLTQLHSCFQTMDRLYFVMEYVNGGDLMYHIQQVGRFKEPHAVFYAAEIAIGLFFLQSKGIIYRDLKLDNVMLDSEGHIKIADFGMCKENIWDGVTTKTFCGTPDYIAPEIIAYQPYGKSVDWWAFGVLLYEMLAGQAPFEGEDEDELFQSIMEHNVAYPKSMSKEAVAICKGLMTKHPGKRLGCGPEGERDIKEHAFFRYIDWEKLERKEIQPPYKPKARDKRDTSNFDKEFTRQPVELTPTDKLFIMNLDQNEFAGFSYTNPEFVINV
Protocol: as §1, §2, §3

[4] = target: PKC-β2 (Homo sapiens, UniProt P05771); assay: PKC Enzyme Assay, beta-2 isozyme; assay type: biochemical
Chain of PKC-β2 (P05771 1-673 isoform P05771-2): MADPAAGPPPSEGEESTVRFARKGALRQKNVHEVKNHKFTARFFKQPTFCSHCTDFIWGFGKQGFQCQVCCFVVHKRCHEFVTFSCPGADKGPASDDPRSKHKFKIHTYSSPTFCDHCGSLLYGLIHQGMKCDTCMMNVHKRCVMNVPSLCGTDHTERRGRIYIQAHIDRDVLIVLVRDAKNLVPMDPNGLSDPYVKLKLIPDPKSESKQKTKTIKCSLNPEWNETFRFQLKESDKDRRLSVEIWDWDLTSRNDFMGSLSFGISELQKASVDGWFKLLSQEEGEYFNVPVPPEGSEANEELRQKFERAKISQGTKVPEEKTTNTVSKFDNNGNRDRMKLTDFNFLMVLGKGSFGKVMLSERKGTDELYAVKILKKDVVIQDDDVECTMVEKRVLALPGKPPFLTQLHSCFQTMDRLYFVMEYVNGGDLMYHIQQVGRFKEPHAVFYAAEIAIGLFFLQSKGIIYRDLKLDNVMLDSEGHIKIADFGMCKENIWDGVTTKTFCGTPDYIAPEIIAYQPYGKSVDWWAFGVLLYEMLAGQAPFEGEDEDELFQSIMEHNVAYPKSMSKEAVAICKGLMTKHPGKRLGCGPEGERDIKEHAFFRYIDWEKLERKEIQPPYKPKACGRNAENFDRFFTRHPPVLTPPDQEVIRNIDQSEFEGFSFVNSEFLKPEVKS
Protocol: as §1, §2, §3

[5] = target: T2, src (Homo sapiens, UniProt P12931); assay: Protein Tyrosine Kinase Assay (src); assay type: biochemical
T2 construct: purchased Onogene Science, Inc. PK02 and PK03
T2 sequence (P12931 whole entry, species assumed): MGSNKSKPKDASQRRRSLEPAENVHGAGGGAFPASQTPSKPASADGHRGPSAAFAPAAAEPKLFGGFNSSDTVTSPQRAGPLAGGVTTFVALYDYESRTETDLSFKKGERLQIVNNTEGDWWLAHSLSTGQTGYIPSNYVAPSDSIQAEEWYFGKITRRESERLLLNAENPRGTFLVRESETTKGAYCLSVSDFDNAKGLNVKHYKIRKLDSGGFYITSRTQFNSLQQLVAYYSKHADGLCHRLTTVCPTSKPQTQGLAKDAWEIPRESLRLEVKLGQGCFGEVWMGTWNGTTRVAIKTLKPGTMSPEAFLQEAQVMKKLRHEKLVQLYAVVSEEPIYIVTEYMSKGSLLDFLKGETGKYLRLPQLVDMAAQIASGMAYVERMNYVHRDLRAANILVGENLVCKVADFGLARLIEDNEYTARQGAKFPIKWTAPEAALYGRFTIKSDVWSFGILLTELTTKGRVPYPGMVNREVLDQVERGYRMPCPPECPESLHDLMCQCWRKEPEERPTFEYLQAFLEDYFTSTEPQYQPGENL
Protocol: Protein Tyrosine Kinase Assay (src)
The Assay components are the following:
4 μL DMSO or DMSO/inhibitor

[6] = target: calcium calmodulin dependent protein kinase; assay: Calcium Calmodulin Dependent Protein Kinase Assay (CAM); assay type: biochemical, rat
Protocol: Calcium Calmodulin Dependent Protein Kinase Assay (CAM)
The reaction is initiated by the addition of calcium calmodulin dependent protein kinase (isolated from rat brain homogenate), incubated at room temperature for 10 minutes and stopped by adding 0.5 mL ice cold trichloroacetic acid (Amresco) followed by 100 μL of 1 mg/mL bovine serum albumin (Sigma, St. Louis, Mo.). The precipitate is collected by vacuum filtration on glass fiber filters and quantified by counting in a beta scintillation counter.
25 μL calmodulin (250 μg/mL)
10 μL DMSO or DMSO/inhibitor

[7] = target: T3, cAMP-dependent kinase catalytic subunit (Bos taurus, UniProt P00517); assay: cAMP-Dependent protein Kinase Catalytic Subunit Assay; assay type: biochemical, bovine
T3 construct: purchased Sigma, St. Louis, Mo; host or cells: bovine heart
Protocol: cAMP-Dependent protein Kinase Catalytic Subunit Assay (PEA) The Assay components are in a total volume of 250 μL: 20 mM HEPES (Sigma, St. Louis, Mo.) buffer pH 7.5, 200 μg/mL histone type HL (Worthington), 10 mM magnesium chloride (Sigma, St. […] The reaction is initiated by addition of bovine heart cAMP-dependent kinase catalytic subunit (Sigma, St. Louis, Mo.), incubated to 30° C. for 10 minutes and stopped by adding 0.5 mL ice cold Trichloroacetic acid (Amresco) followed by 100 μL of 1 mg/mL bovine serum albumin (Sigma). The precipitate is collected by vacuum filtrated on glass fiber filters employing a TOMTEC™ and quantified by counting in a beta scintillation counter. This assay is done identical to the protein kinase C (PKC) enzyme assay except that no phospholipids or diacylglycerol are employed in the assay and the histone substrate is specific for the cAMP-dependent catalytic subunit enzyme.

Structure (SMILES)	IC50 [1] [nM]	IC50 [2] [nM]	IC50 [3] [nM]	IC50 [4] [nM]	IC50 [5] [nM]	IC50 [6] [nM]	IC50 [7] [nM]
O=C1NC(=O)C2=C1c1cn(c3ccccc13)CCOCCn1cc2c2ccccc21 [Example 1, 3,4-[(N,N'-1,1'-ethoxyethyl)-bis-(3,3'-indolyl)]-1H-pyrrole-2,5-dione]	1000	> 100000	50	40			
O=C1NC(=O)C2=C1c1cn(c3ccccc13)CCOC(CO)CCn1cc2c2ccccc21 (stereo not drawn) [Example 3]					> 100000		
CN(C)C[C@H]1CCn2cc(c3ccccc32)C2=C(C(=O)NC2=O)c2cn(c3ccccc23)CCO1 [Example 5r]		> 100000				5000	> 100000
CN(C)C[C@@H]1CCn2cc(c3ccccc32)C2=C(C(=O)NC2=O)c2cn(c3ccccc23)CCO1 [Example 5s]		> 100000				8000	> 100000
O=C1NC(=O)C2=C1c1cn(c3ccccc13)CCOCC(CO)CCn1cc2c2ccccc21 (stereo not drawn) [Example 6]	4200		43	35			
O=C1NC(=O)C2=C1c1cn(c3ccccc13)CCOCC(CN1CCCC1)CCn1cc2c2ccccc21 (stereo not drawn) [Example 7, 3,4-[(N,N'-1,1'-(2"-ethoxy-(3"'((O)-methylene)-4"'-(N-pyrrolidino)-butane)-bis-(3,3'-indolyl)]-1(H)-pyrrole-2,5-dione hydrochloride salt]	> 5000		150	180			
CN(C)CC1CCn2cc(c3ccccc32)C2=C(C(=O)NC2=O)c2cn(c3ccccc23)CCOC1 (stereo not drawn) [Example 8, 3,4-[(N,N'-1,1'-(2"-ethoxy-(3"'((O)-methylene)-4"'-(N,N-dimethylamino)-butane)-bis-(3,3'-indolyl)]-1(H)-pyrrole-2,5-dione hydrochloride salt]	2500		37	32			
O=C1NC(=O)C2=C1c1cn(c3ccccc13)CCCOC(CN1CCCC1)CCn1cc2c2ccccc21 (stereo not drawn) [Example 12]	19000	> 100000	600	500		93000	> 100000
O=C1NC(=O)C2=C1c1cn(c3ccccc13)CCCOC(CNCc1ccccc1)CCn1cc2c2ccccc21 (stereo not drawn) [Example 13]	> 5000		1900	940			
O=C1NC(=O)C2=C1c1cn(c3ccccc13)CCCOC(CNS(=O)(=O)c1ccccc1)CCn1cc2c2ccccc21 (stereo not drawn) [Example 15]	> 5000		2900	830			
O=C(NCC1CCn2cc(c3ccccc32)C2=C(C(=O)NC2=O)c2cn(c3ccccc23)CCCO1)OCc1ccccc1 (stereo not drawn) [Example 16]	> 5000		3200	2300			
O=C1NC(=O)C2=C1c1cn(c3ccccc13)CCO[C@@H](CNCc1ccccc1)CCn1cc2c2ccccc21 [Example 18r]	3400	> 100000	83	87		8800	> 100000
O=C1NC(=O)C2=C1c1cn(c3ccccc13)CCO[C@H](CNCc1ccccc1)CCn1cc2c2ccccc21 [Example 18s]	6400	> 100000	380	300			> 100000
O=C1NC(=O)C2=C1c1cn(c3ccccc13)CCO[C@H](CNS(=O)(=O)c1ccccc1)CCn1cc2c2ccccc21 [Example 21s]			170	44			
CN1CCN(C[C@@H]2CCn3cc(c4ccccc43)C3=C(C(=O)NC3=O)c3cn(c4ccccc34)CCO2)CC1 [Example 23s]	1800		300	240			
O=C1NC(=O)C2=C1c1cn(c3ccccc13)CCO[C@H](CN1CCOCC1)CCn1cc2c2ccccc21 [Example 24s]	3500		490	380			
O=C(NC[C@H]1CCn2cc(c3ccccc32)C2=C(C(=O)NC2=O)c2cn(c3ccccc23)CCO1)OCc1ccccc1 [Example 25r]	94000	> 100000	43	120		22000	> 100000
O=C1NC(=O)C2=C1c1cn(c3ccccc13)CCOc1ccccc1Cn1cc2c2ccccc21 [Example 27, 3,4-[(N,N'-1,1'-(2"-ethoxy)-benzyl)-bis-(3,3'-indolyl)]-1(H) -pyrrole-2,5-dione hydrochloride]	2200		49	26			
O=C(OCc1ccccc1)OCC1CCCn2cc(c3ccccc32)C2=C(C(=O)NC2=O)c2cn(c3ccccc23)CC1 (stereo not drawn) [Example 29, 3,4-[(N,N'-1,1'-(3"-(benzylcarbonate)methylene)hexane)-bis-(3,3'-indolyl)]-1H-pyrrole-2,5-dione]	> 100000		700	800			
O=C1NC(=O)C2=C1c1cn(c3ccccc13)CCC[C@@H](CO)CCn1cc2c2ccccc21 [Example 31r]	240		19	8			
NCC1CCCn2cc(c3ccccc32)C2=C(C(=O)NC2=O)c2cn(c3ccccc23)CC1 (stereo not drawn) [Example 33, 3,4-[(N,N'-1,1'-(3"-aminomethylene)-hexane)-bis-(3,3'-indolyl)]-1H-pyrrole-2,5-dione]	400		50	40	61000	600	
CN(C)C[C@H]1CCCn2cc(c3ccccc32)C2=C(C(=O)NC2=O)c2cn(c3ccccc23)CC1 [Example 40s, (S)-3,4-[(N,N'-1,1'-(3"-(N,N-dimethylamine)methylene)-hexane)-bis-(3,3'-indolyl)]-1H-pyrrole-2,5-dione hydrochloride salt]	400	> 100000				41000	> 100000
O=C1NC(=O)C2=C1c1cn(c3ccccc13)CCCC(Cn1ccnc1)CCn1cc2c2ccccc21 (stereo not drawn) [Example 41, 3,4-[(N,N'-1,1'-(3"-(N-imidazole)methylene)-hexane)-bis-(3,3'-indolyl)]-1H-pyrrole-2,5-dione]	300	> 100000			91000	3000	
O=C1NC(=O)C2=C1c1cn(c3ccccc13)CCCCCCCCn1cc2c2ccccc21 [Example 44]	> 100000		2000	2000			
O=C1NC(=O)C2=C1c1cn(c3ccccc13)CCC(CO)CCn1cc2c2ccccc21 [Example 51, 3,4-[(N,N'-1,1'-(3"-(hydroxy)methylene)pentan)-bis-(3,3'-indolyl)]-1(H)-pyrrole-2,5-dione]	49000		500	500			
CN(C)CC1CCn2cc(c3ccccc32)C2=C(C(=O)NC2=O)c2cn(c3ccccc23)CC1 [Example 54, 3,4-[(N,N'-1,1'-(3"-(N,N-(dimethylamino)methylene)pentanyl)-bis-(3,3'-indolyl)]-1(H)-pyrrole-2,5-dione hydrochloride]	160		5	4			
O=C1NC(=O)C2=C1c1cn(c3ccccc13)CCCOC(CNCc1ccccc1)CCn1cc2c2ccccc21 (stereo not drawn) [Example 55]			410	380			

— US5696108A, “Protein kinase C inhibitors” (Eli Lilly and Company, priority 1996, dated 1997)
